{"source": "patent US8932614B2", "about": "“Incorporation of particulate ceragenins in polymers” (priority 2011, dated 2015)", "key": {"MRSA": {"tested_on": "MRSA", "experiment": "Coated titanium bone plugs in broth challenged with MRSA (planktonic, FIG. 4)", "type": "cell-based, methicillin-resistant Staphylococcus aureus", "details": "for viable bacteria per tube: 4 and 8 hour time points, challenge ~5×10^8 CFU MRSA; for viable bacteria: 24 hour time point", "method": "To confirm that medical devices coated with the ceragenin-containing composites described herein are able to kill bacteria, various groups of titanium bone plugs were prepared. The titanium bone plugs were either uncoated, coated with MED-6607 ceragenin-containing silicone polymer prepared as described above, or with MED-6607 silicone polymer only. In the groups of bone plugs that were coated with ceragenin-containing silicone polymer, the silicone either contained 16 wt %, 18 wt %, or 20 wt % ceragenin. Specifically, the groups of bone plugs were as follows: • 0%—a titanium bone plug coated with silicone polymer with no ceragenin • 16%—a titanium bone plug coated with silicone polymer containing 16% CSA-13 (w/w) • 18%—a titanium bone plug coated with silicone polymer containing 18% CSA-13 (w/w) • […] • titanium—a titanium bone plug with no coating\nThe bone plugs were placed into broth (e.g., 30 ml of broth) and challenged with ˜5×10^8 colony forming units (CFU) of MRSA. In addition, a broth/MRSA-only control was prepared. Samples were withdrawn from each of the tubes at 0, 1, 2, 4, 8, 24, and 48 hours. The data for the 0, 1, 2, 4, 8, and 24 hour data points are graphed in FIG. 4.\nIn contrast, the 16% tubes each contained about 1×10^3 CFU and the 20% tubes each contained about 5×10^2 CFU."}, "biofilms": {"tested_on": "biofilms", "experiment": "Coated bone plates implanted into animals and challenged with biofilms", "type": "in vivo, sheep", "details": "CSA-13 coated stainless steel plates", "source_text": "Similar results were obtained in vivo when bone plates were coated with ceragenin-containing composites and were compared with bone plates coated with polymer only, then implanted into animals and challenged with biofilms. […] In contrast, 100% of animals who received polymer-only bone plates developed infection when they were infected with biofilms and bacterial loads in and around the infection site exceeded 10^6 bacterial cells per gram of tissue, which is well above the standard for infection.\nIn addition, histological sections were compared from animals receiving bone plates. […] Two sheep in Group 1 were euthanized after one week due to the severity of their infections. […] And while inflammation was present in sheep from all groups, with the highest level of inflammation being present in Group 1 sheep, this is a normal response to surgical trauma."}}, "data": [{"smiles": "CCCCCCCCNCCC[C@@H](C)[C@H]1CC[C@H]2[C@@H]3[C@H](OCCCN)C[C@@H]4C[C@H](OCCCN)CC[C@]4(C)[C@H]3C[C@H](OCCCN)[C@]12C", "note": "[CSA-13]", "values": [{"measurement": "viable bacteria per tube", "setting": "MRSA; bone plug coated with silicone containing 16% CSA-13 (w/w)", "value": "about 1×10^3 CFU"}, {"measurement": "viable bacteria", "setting": "MRSA; bone plug coated with silicone containing 16% CSA-13", "value": "considerable numbers of viable bacteria"}, {"measurement": "viable bacteria per tube", "setting": "MRSA; bone plug coated with silicone containing 18% CSA-13 (w/w)", "value": "essentially no viable bacterial"}, {"measurement": "viable bacteria per tube", "setting": "MRSA; bone plug coated with silicone containing 20% CSA-13 (w/w)", "value": "about 5×10^2 CFU"}, {"measurement": "viable bacteria", "setting": "MRSA; bone plug coated with silicone containing 20% CSA-13, compared with 18%", "value": "caught up to the 18"}, {"measurement": "numbers of viable bacteria (CFU/ml) over time", "setting": "MRSA; tubes containing a bone plug with CSA-13 (16%, 18% and 20%), 0-24 h", "value": "dropped dramatically"}, {"measurement": "sheep showing signs of osteomyelitis (histology)", "setting": "biofilms; Group 2 (n=9): biofilm", "value": "none"}, {"measurement": "sheep showing signs of osteomyelitis (histology)", "setting": "biofilms; Group 4 (n=8): no biofilm", "value": "none"}]}]}
